Experimental data from ChEMBL document CHEMBL4130634, “Discovery of Reversible DNA Methyltransferase and Lysine Methyltransferase G9a Inhibitors with Antitumoral in Vivo Efficacy” (J Med Chem, 2018).

Legend:
CYP2D6 = CYP2D6 (Homo sapiens, UniProt P10635); test: Inhibition of CYP2D6 in human liver microsomes at 10 uM after 10 mins in presence of NADPH by LC-MS/MS analysis relative to control; assay type: ADME
[1] = Growth inhibition of human LAL-CUN-2 cells after 48 hrs by MTS assay; assay type: functional
CYP2C19 = CYP2C19 (Homo sapiens, UniProt P33261); test: Inhibition of CYP2C19 in human liver microsomes at 10 uM after 10 mins in presence of NADPH by LC-MS/MS analysis relative to control; assay type: ADME
CYP2C19, sequence (P33261 whole entry): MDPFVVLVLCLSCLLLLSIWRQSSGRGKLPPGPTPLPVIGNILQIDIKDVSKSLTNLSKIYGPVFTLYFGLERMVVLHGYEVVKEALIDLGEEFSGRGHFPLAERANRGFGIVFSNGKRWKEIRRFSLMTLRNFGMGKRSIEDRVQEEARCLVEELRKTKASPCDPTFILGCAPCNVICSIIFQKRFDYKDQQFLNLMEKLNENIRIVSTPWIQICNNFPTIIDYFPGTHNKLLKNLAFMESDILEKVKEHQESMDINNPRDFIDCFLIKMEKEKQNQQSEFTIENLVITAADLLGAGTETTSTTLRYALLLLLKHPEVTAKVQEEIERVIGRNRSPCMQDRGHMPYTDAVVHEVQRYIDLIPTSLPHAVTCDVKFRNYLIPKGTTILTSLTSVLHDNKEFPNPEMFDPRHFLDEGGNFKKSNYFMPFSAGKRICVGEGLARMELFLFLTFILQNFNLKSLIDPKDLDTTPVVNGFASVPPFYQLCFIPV

OCI-Ly3 = test: Growth inhibition of human OCI-LY3 cells after 48 hrs by MTS assay; assay type: functional; details: OCI-Ly3, 48 h
[2] = Growth inhibition of human CEMO1 cells after 48 hrs by MTS assay; assay type: functional
[3] = Metabolic stability in mouse liver microsomes assessed as parent compound remaining at 1 uM preincubated for 10 mins followed by NADP addition after 20 mins by LC-MS/MS analysis; assay type: ADME, microsome; details: read-out: Stability
THLE-2 = test: Growth inhibition of human THLE2 cells after 72 hrs by MTS assay; assay type: cell-based; details: thle-2, 72 h
[4] = Half life in mouse liver microsomes at 1 uM preincubated for 10 mins followed by NADP addition after 20 mins by LC-MS/MS analysis; assay type: ADME, microsome
[5] = target: T1, Histone-lysine N-methyltransferase EHMT1 (Homo sapiens, UniProt Q9H9B1); test: Inhibition of recombinant human GLP using histone H3 peptide as substrate after 120 mins in presence of [3H]SAM by radiometric assay
T1 sequence (Q9H9B1 whole entry): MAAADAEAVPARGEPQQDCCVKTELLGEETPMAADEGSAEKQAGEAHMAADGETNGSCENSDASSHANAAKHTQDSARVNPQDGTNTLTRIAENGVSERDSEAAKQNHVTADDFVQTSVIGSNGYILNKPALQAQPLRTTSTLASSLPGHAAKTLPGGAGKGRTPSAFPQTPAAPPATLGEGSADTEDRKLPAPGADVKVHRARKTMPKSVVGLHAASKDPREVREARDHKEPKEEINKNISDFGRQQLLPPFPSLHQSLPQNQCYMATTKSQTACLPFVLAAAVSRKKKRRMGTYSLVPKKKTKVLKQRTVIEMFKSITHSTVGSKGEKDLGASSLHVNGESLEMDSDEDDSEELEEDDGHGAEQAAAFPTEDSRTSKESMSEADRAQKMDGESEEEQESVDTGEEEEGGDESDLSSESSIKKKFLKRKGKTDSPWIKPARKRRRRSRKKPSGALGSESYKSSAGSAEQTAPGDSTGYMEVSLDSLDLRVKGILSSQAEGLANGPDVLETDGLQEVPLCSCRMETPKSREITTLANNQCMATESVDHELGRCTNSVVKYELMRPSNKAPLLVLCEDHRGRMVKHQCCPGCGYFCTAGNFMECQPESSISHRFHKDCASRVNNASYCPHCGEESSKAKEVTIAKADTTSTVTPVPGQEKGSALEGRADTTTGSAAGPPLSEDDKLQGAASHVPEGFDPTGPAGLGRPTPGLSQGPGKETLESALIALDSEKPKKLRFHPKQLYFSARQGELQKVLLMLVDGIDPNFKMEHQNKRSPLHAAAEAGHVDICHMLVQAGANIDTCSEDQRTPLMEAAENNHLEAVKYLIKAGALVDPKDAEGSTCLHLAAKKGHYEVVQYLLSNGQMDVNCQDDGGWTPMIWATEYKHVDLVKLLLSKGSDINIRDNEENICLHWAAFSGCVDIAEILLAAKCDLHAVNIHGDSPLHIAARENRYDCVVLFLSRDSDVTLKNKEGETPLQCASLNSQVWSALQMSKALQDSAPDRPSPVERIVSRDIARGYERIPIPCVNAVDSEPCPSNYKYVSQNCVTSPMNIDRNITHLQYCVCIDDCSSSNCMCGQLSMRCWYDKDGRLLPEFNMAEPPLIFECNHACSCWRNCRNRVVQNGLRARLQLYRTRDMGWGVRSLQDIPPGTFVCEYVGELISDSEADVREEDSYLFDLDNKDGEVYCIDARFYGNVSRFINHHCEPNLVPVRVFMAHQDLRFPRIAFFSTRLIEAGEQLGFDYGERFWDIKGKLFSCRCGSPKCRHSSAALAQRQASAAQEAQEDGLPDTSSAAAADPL

[6] = Clearance in RARG2-/-gammac-/- Balb/c mouse at 5 mg/kg, iv administered as single dose by LC-MS/MS analysis; assay type: ADME, organism-based; details: in vivo

CYP2D6, sequence (P10635 whole entry): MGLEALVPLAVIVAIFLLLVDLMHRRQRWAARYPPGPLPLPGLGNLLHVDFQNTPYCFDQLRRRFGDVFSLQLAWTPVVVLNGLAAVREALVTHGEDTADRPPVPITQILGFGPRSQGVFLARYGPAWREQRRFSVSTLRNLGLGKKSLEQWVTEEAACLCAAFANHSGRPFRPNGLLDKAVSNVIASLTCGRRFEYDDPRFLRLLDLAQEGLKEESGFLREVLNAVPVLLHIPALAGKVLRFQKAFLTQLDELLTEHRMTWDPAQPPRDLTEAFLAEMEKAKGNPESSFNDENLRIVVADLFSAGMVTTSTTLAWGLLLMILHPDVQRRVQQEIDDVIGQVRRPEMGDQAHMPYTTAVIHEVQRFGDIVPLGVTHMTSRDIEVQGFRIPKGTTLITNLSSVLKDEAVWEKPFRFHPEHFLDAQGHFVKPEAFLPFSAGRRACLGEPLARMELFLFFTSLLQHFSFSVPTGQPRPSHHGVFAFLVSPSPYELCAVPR

Question: For `COc1cc2c(NC3CCN(C4CC4)CC3)cc(-c3ccc(C)o3)nc2cc1OCCCN1CCCC1`, which inhibition at 10 min, 10 µM (CYP2D6) is on record?
Answer: Its inhibition at 10 min, 10 µM is 27.6%.

Question: What about the GI50 [1] of the same compound?
Answer: The GI50 was 1380 nM.

Question: What about the inhibition at 10 min, 10 µM (CYP2C19) of the same compound?
Answer: Its inhibition at 10 min, 10 µM is 4%.

Question: What about the GI50 (OCI-Ly3) of the same compound?
Answer: Its GI50 is 187 nM.

Question: What about the GI50 [2] of the same compound?
Answer: Its GI50 is 453 nM.

Question: And the remaining at 20 min, 1 µM [3]?
Answer: Its remaining at 20 min, 1 µM is 15%.

Question: What about the LC50 (THLE-2) of the same compound?
Answer: The LC50 was 455 nM.

Question: And the half-life at 1 µM [4]?
Answer: The half-life at 1 µM was 6 min.

Question: What about the IC50 [5] of the same compound?
Answer: Its IC50 is greater than 20000 nM.

Question: And the clearance [6]?
Answer: Its clearance is 15 mL/min/kg.
